According to patent US9422321B2, “Pyrimidine nucleoside derivatives, synthesis methods and uses thereof for preparing anti-tumor and anti-virus medicaments” (High & New Technology Research Center, Henan Academy of …, priority 2010, dated 2016):

Columns and labels:
VSVG/HIV-luc (NL4-3) = experiment: microbe, parasite or virus in culture; assay type: cell-based, HIV-1; conditions: Human immunodeficiency virus 1, NL43, HEK-293T; for EC50: 48 h, read-out: EC50 (μM) VSVG/HIV-luc (NL4-3); for inhibition at 10 µM: read-out: Inhibitory activity at 10 μM
[1] = MTS test of effects of the compound on cell survival; assay type: cell-based; conditions: human, 293T cells
Method: Then, 20 μL freshly prepared mixture of MTS/PMS was added to each well and after 4 h incubation in the incubator at 37° C. with 5% CO2, the color was developed. The light absorption (OD) of each well at wavelengths 490 nm and 650 nm (background) was detected on an enzyme linked immuno analyzer, and the survival rate of cells was calculated.

HBsAg = experiment: In vitro inhibition of HBV: HBsAg in HepG2.2.15 cells by ELISA; assay type: cell-based; conditions: Hepatitis B virus, HepG2.2.15, read-out: IC50 (μM) (HBsAg)
Method: (§1) A tube of frozen HepG2.2.15 cells taken from a liquid nitrogen tank was quickly placed into a water bath at 42° C. and shaken to thaw. DMEM complete medium (fetal bovine serum 10%, G418 380 μg/mL, Penicillin 100 U/ml, Streptomycin 100 U/ml) was used for cell culturing at conditions of 37° C. and 5% CO2. The number of cell passage in normal growing cells was once per 2-3 days.
(§2) The effect of a compound on HBV surface antigen s and antigen e in the cell culture was detected using a screening concentration lower than the half toxic concentration of the compound. HepG2.2.15 cells in logarithmic growth phase were selected and digested with trypsin into single cell suspension, and were seeded to a 24-well plate at a concentration of 2×10^4/mL, 1 mL per well. Media of different medicament concentrations were added, three wells for each concentration, and cells added with complete medium were set as normal control. Cell supernatants and cells at day 3, day 6 and day 9 were collected and kept under −20° C. The intracellular and extracellular expressions of e antigen and surface antigen at day 3, day 6 and day 9 were determined by ELISA.
(§3) 2.4 Effect of the Compound on HBeAg and HBsAg in HepG2.2.15 Cell Supernatant Detected by ELISA
(§4) The instructions of the kit were followed;
(§5) Measurement: OD value of each well was read from microplate reader using dual wavelength 450/630 nm.
(§6) Result determination: The Cutoff value was first calculated according to equation: COV=average OD of negative control×2.1. Then, if a sample had OD≧COV, the result was determined as positive, or if a sample had OD≦COV, the result was determined as negative.

[2] = MTT test of cytotoxicity on HepG2.2.15 cells; assay type: cell-based; conditions: human, read-out: CC50 (μM) (HepG2. 2. 15)
Method: as §1
Cytotoxicity of the compound on HepG2.2.15 cells was tested with the MTT colorimetric assay established by Mosmann. After continuous incubation for 72 h, 10 μL MTT was added to each well. Four hours later, the supernatant was discarded and 200 μL DMSO was added to each well. The OD value in each well was read using a microplate reader (measurement wavelength 490 nm, reference wavelength 630 nm). The result was recorded and the percentage inhibition of HepG2.2.15 cells by each compound was calculated:
The half toxic concentration (TC50) of the medicament on cells was calculated according to the percentage inhibition of the cell by the medicament.

HBeAg = experiment: In vitro inhibition of HBV: HBeAg in HepG2.2.15 cells by ELISA; assay type: cell-based; conditions: Hepatitis B virus, HepG2.2.15, read-out: IC50 (μM) (HBeAg)
Method: as §1, §2, §3, §4, §5, §6

Compound	IC50 (HBsAg) [µM]	CC50 at 72 h [2] [µM]	inhibition at 10 µM (VSVG/HIV-luc (NL4-3)) [%]	further results
[N-]=[N+]=N[C@]1(CO)O[C@@H](n2ccc(NCCc3ccc(O)cc3)nc2=O)C(F)C1O (stereo partly drawn) [Compound 5-03]	< 0.1	834		EC50 (VSVG/HIV-luc (NL4-3)): 5.7 ± 0.2 µM; CC50 at 44 h [1]: ≥ 25 µM
[N-]=[N+]=N[C@]1(CO)O[C@@H](n2ccc(NCc3ccccc3)nc2=O)C(F)C1O (stereo partly drawn) [Compound 5-16]			31.3 ± 4	
CCCCCCCNc1ccn([C@@H]2O[C@@](CO)(N=[N+]=[N-])C(O)C2F)c(=O)n1 (stereo partly drawn) [Compound 5-26]			33.9 ± 0.5	
[N-]=[N+]=N[C@]1(CO)O[C@@H](n2cc(-c3ccco3)c(=O)[nH]c2=O)C(F)C1O (stereo partly drawn) [Compound 10]			15.1 ± 0.8	
CONc1ccn([C@@H]2O[C@@](CO)(N=[N+]=[N-])C(O)C2F)c(=O)n1 (stereo partly drawn) [Compound 5-07]	< 0.01	418	29.4 ± 5.1	IC50 (HBeAg): > 1 µM
[N-]=[N+]=N[C@]1(CO)O[C@@H](n2cc(-c3ccco3)c(N)nc2=O)C(F)C1O (stereo partly drawn) [Compound 12]			15.8 ± 4.4	
CCONc1ccn([C@@H]2O[C@@](CO)(N=[N+]=[N-])C(O)C2F)c(=O)n1 (stereo partly drawn) [Compound 5-08]	0.12	572	15.6 ± 1.3	IC50 (HBeAg): > 1 µM
[N-]=[N+]=N[C@]1(CO)O[C@@H](n2ccc(NCC(O)CO)nc2=O)C(F)C1O (stereo partly drawn) [Compound 5-18]			17.8 ± 0.6	
[N-]=[N+]=N[C@]1(CO)O[C@@H](n2cc(C#CCCO)c(N)nc2=O)C(F)C1O (stereo partly drawn) [Compound 15]			27 ± 4.7	
[N-]=[N+]=N[C@]1(CO)O[C@@H](n2ccc(NCCCN)nc2=O)C(F)C1O (stereo partly drawn) [Compound 5-32]			0.9 ± 0.8	
[N-]=[N+]=N[C@]1(CO)O[C@@H](n2ccc(NCCCO)nc2=O)C(F)C1O (stereo partly drawn) [Compound 5-14]	2.46	668	6.3 ± 3.2	
COC(=O)[C@H](Cc1ccccc1)Nc1ccn([C@@H]2O[C@@](CO)(N=[N+]=[N-])C(O)C2F)c(=O)n1 (stereo partly drawn) [Compound 8n]		> 250		EC50 (VSVG/HIV-luc (NL4-3)): 5.4 ± 3 µM; CC50 at 44 h [1]: ≥ 25 µM; IC50 (HBeAg): 4.41 µM
[N-]=[N+]=N[C@]1(CO)O[C@@H](n2ccc(NC3CCCCC3)nc2=O)C(F)C1O (stereo partly drawn) [Compound 5-10]	< 0.1	654	1.9 ± 2.2	
[N-]=[N+]=N[C@]1(CO)O[C@@H](n2cc3cc(CCO)oc3nc2=O)C(F)C1O (stereo partly drawn) [Compound 16]			9.9 ± 0.8	
[N-]=[N+]=N[C@]1(CO)O[C@@H](n2cc(C(=O)N3CCOCC3)c(=O)[nH]c2=O)C(F)C1O (stereo partly drawn) [Compound 22]	2.14	644	0	
COC(=O)[C@H](CO)Nc1ccn([C@@H]2O[C@@](CO)(N=[N+]=[N-])C(O)C2F)c(=O)n1 (stereo partly drawn) [Compound 8h]	0.07	> 250		EC50 (VSVG/HIV-luc (NL4-3)): 6.2 ± 0.6 µM; CC50 at 44 h [1]: ≥ 25 µM
[N-]=[N+]=N[C@]1(CO)O[C@@H](n2cc(C(=O)N3CCSCC3)c(=O)[nH]c2=O)C(F)C1O (stereo partly drawn) [Compound 27]	< 0.1	585	4.8 ± 1.8	
[N-]=[N+]=N[C@]1(CO)O[C@@H](n2ccc(N3CCOCC3)nc2=O)C(F)C1O (stereo partly drawn) [Compound 5-12]	< 0.1	700	3 ± 6.9	IC50 (HBeAg): > 1 µM
CCNc1ccn([C@@H]2O[C@@](CO)(N=[N+]=[N-])C(O)C2F)c(=O)n1 (stereo partly drawn) [Compound 5-01]			21.6 ± 1.3	
[N-]=[N+]=N[C@]1(CO)O[C@@H](n2cc(C(=O)N3CCCC3)c(=O)[nH]c2=O)C(F)C1O (stereo partly drawn) [Compound 25]			16.8 ± 1.2	
COC(=O)[C@H](CCSC)Nc1ccn([C@@H]2O[C@@](CO)(N=[N+]=[N-])C(O)C2F)c(=O)n1 (stereo partly drawn) [Compound 8g]	19.6	> 250		EC50 (VSVG/HIV-luc (NL4-3)): 8.1 ± 5.5 µM; CC50 at 44 h [1]: ≥ 25 µM

Compound	IC50 (HBsAg) [µM]	CC50 at 72 h [2] [µM]	inhibition at 10 µM (VSVG/HIV-luc (NL4-3)) [%]	further results
CCCCCCNc1ccn([C@@H]2O[C@@](CO)(N=[N+]=[N-])C(O)C2F)c(=O)n1 (stereo partly drawn) [Compound 5-25]			35 ± 1.7	
[N-]=[N+]=N[C@]1(CO)O[C@@H](n2ccc(NCC(O)CN)nc2=O)C(F)C1O (stereo partly drawn) [Compound 5-33]			14.1 ± 2.2	
CC(Nc1ccn([C@@H]2O[C@@](CO)(N=[N+]=[N-])C(O)C2F)c(=O)n1)C(=O)O (stereo partly drawn) [Compound 8m]				EC50 (VSVG/HIV-luc (NL4-3)): 0.5 ± 0.3 µM; CC50 at 44 h [1]: ≥ 25 µM
CNNc1ccn([C@@H]2O[C@@](CO)(N=[N+]=[N-])C(O)C2F)c(=O)n1 (stereo partly drawn) [Compound 5-31]			22.8 ± 3.5	
[N-]=[N+]=N[C@]1(CO)O[C@@H](n2ccc(NCCc3c[nH]c4ccccc34)nc2=O)C(F)C1O (stereo partly drawn) [Compound 5-20]		> 250		EC50 (VSVG/HIV-luc (NL4-3)): 5.8 ± 2.6 µM; CC50 at 44 h [1]: ≥ 25 µM
[N-]=[N+]=N[C@]1(CO)O[C@@H](n2ccc(NN3CCOCC3)nc2=O)C(F)C1O (stereo partly drawn) [Compound 5-22]			14.2 ± 5.1	
[N-]=[N+]=N[C@]1(CO)O[C@@H](n2cc(C#CCCO)c(=O)[nH]c2=O)C(F)C1O (stereo partly drawn) [Compound 14]			10 ± 5.9	
[N-]=[N+]=N[C@]1(CO)O[C@@H](n2ccc(NCc3ccco3)nc2=O)C(F)C1O (stereo partly drawn) [Compound 5-09]	0.19	≥ 25		EC50 (VSVG/HIV-luc (NL4-3)): 0.7 ± 0.1 µM; CC50 at 44 h [1]: ≥ 25 µM
CCCCCCCCNc1ccn([C@@H]2O[C@@](CO)(N=[N+]=[N-])C(O)C2F)c(=O)n1 (stereo partly drawn) [Compound 5-27]			32.3 ± 3.2	
CON(C)c1ccn([C@@H]2O[C@@](CO)(N=[N+]=[N-])C(O)C2F)c(=O)n1 (stereo partly drawn) [Compound 5-06]			32.2 ± 10.5	
COCCCNc1ccn([C@@H]2O[C@@](CO)(N=[N+]=[N-])C(O)C2F)c(=O)n1 (stereo partly drawn) [Compound 5-23]			10.4 ± 3.5	
CCCCCNc1ccn([C@@H]2O[C@@](CO)(N=[N+]=[N-])C(O)C2F)c(=O)n1 (stereo partly drawn) [Compound 5-24]			33.8 ± 1	
[N-]=[N+]=N[C@]1(CO)O[C@@H](n2ccc(NCCO)nc2=O)C(F)C1O (stereo partly drawn) [Compound 5-13]			41.7 ± 1.8	
COC(=O)[C@@H]1CCCN1c1ccn([C@@H]2O[C@@](CO)(N=[N+]=[N-])C(O)C2F)c(=O)n1 (stereo partly drawn) [Compound 7L]	0.02	596	5.1 ± 4.6	
[N-]=[N+]=N[C@]1(CO)O[C@@H](n2ccc(N3CCSCC3)nc2=O)C(F)C1O (stereo partly drawn) [Compound 5-29]			11.6 ± 0.5	
COC(=O)[C@H](Nc1ccn([C@@H]2O[C@@](CO)(N=[N+]=[N-])C(O)C2F)c(=O)n1)C(C)C (stereo partly drawn) [Compound 8f]	0.26	> 250		EC50 (VSVG/HIV-luc (NL4-3)): 4.7 ± 0.1 µM; CC50 at 44 h [1]: ≥ 25 µM
[N-]=[N+]=N[C@]1(CO)O[C@@H](n2ccc(N3CCCC3)nc2=O)C(F)C1O (stereo partly drawn) [Compound 5-05]			31.6 ± 3.6	
CCN(CC)c1ccn([C@@H]2O[C@@](CO)(N=[N+]=[N-])C(O)C2F)c(=O)n1 (stereo partly drawn) [Compound 5-04]			8.6 ± 7.5	
[N-]=[N+]=N[C@]1(CO)O[C@@H](n2ccc(NNC(N)=O)nc2=O)C(F)C1O (stereo partly drawn) [Compound 5-30]			38.6 ± 5.7	
Cc1cn([C@H]2C[C@H](N=[N+]=[N-])[C@@H](CO)O2)c(=O)[nH]c1=O [Zidovudine, reference compound]				EC50 (VSVG/HIV-luc (NL4-3)): 0.084 ± 0.0026 µM
